{
  "source": "BindingDB's records for doi:10.1080/14756360802218334",
  "about": "(Cardiff University, 2009)",
  "data": [
    {"molecular_target": "T1, Cytochrome P450 26A1 (Homo sapiens, UniProt O43174)", "T1 sequence (O43174 whole entry)": "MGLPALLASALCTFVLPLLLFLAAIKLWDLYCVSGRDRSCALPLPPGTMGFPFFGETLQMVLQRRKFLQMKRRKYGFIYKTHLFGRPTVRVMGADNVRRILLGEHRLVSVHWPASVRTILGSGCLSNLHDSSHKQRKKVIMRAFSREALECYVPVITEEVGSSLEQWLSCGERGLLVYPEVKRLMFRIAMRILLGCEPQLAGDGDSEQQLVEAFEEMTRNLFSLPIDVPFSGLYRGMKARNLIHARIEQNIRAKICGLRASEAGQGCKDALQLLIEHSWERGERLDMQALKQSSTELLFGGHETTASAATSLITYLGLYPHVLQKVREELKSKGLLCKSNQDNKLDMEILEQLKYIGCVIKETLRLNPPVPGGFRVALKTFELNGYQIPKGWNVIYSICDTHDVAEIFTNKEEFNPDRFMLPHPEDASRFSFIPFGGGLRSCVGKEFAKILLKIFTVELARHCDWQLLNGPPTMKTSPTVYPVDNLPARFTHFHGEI", "assay": "Cell Assay", "units": {"IC50": "µM"}, "values": [
      {"compound": "c1ccc(C(c2ccc(Nc3nc4ccccc4o3)cc2)n2cncn2)cc1", "note": "(centres undefined) [1H-1,2,4-triazole, 11]", "IC50": 18},
      {"compound": "c1ccc(C(c2ccc(Nc3nc4ccccc4o3)cc2)n2cnnc2)cc1", "note": "(centres undefined) [1H-1,2,4-triazole, 12]", "IC50": "> 20"},
      {"compound": "c1ccc(C(c2ccc(Nc3nc4ccccc4o3)cc2)n2cnnn2)cc1", "note": "(centres undefined) [1H-tetrazole, 13]", "IC50": "> 20"},
      {"compound": "Fc1ccc(C(c2ccc(Nc3nc4ccccc4o3)cc2)n2ccnc2)cc1", "note": "(centres undefined) [Oxazolamine derivative, 5a]", "IC50": 35},
      {"compound": "COC(=O)c1ccc(C(c2ccc(Nc3nc4ccccc4o3)cc2)n2ccnc2)cc1", "note": "(centres undefined) [Oxazolamine derivative, 5c]", "IC50": 20},
      {"compound": "O=C(O)c1ccc(C(c2ccc(Nc3nc4ccccc4o3)cc2)n2ccnc2)cc1", "note": "(centres undefined) [Oxazolamine derivative, 5d]", "IC50": 50},
      {"compound": "COc1ccc(C(c2ccc(Nc3nc4ccccc4o3)cc2)n2ccnc2)cc1", "note": "(centres undefined) [Oxazolamine derivative, 5e]", "IC50": "> 20"},
      {"compound": "Oc1ccc(C(c2ccc(Nc3nc4ccccc4o3)cc2)n2ccnc2)cc1", "note": "(centres undefined) [Oxazolamine derivative, 5f]", "IC50": 12},
      {"compound": "CCC(CC)C(c1ccc(Nc2nc3ccccc3s2)cc1)n1cncn1", "note": "(centres undefined) [R115866]", "IC50": 0.005}
    ]}
  ]
}
